Experimental data from paper PMC6713100, “Anticancer sulfonamide hybrids that inhibit bladder cancer cells growth and migration as tubulin polymerisation inhibitors” (Journal of Enzyme Inhibition and Medicinal Chemistry, 2019).
Each block holds one molecule with its values, some of them ahead of it.

Experiments:
HT-29 cell line = tested on: HT-29 cell line; set-up: method as in PMID 26774930; conditions: read-out: IC50 HT-29 cell viability; cited from earlier work
MCF-7 cells = tested on: MCF-7 cells; set-up: method as in PMID 28802125; conditions: read-out: IC50 MCF-7 antiproliferative activity; cited from earlier work
T47D cells = tested on: T47D cells; set-up: method as in PMID 28212337; conditions: read-out: IC50 T47D anticancer activity in vitro; cited from earlier work
MCF-7 = assay: CCK8 antiproliferative assay, breast cancer cells; assay type: cell-based; conditions: Homo sapiens, MCF7, treatment for 48 h, means of three independent experiments
SNU-423 = assay: CCK8 antiproliferative assay, liver cancer cells; assay type: cell-based; conditions: Homo sapiens, treatment for 48 h, means of three independent experiments
Description: (§1) Breast cancer cells (MDA-MB-453), liver cancer cells (SNU-423), and bladder cancer cells (UM-UC-3, RT-112, RT4, T24) were purchased from the Shanghai culture company, and cultured at 37 °C in an atmosphere containing 5% CO2. 4,000 cells per well were seeded into a 96-well plate for 24 h and compounds were added to cluture 48 h. Next, 6 mg/ml CCK8 (20 µl) per well was added to explore the cell survival.
(§2) CCK8 method was used to investigate the anticancer activity in vitro of sulfonamide-dithiocarbamate hybrids 13a–13d against cancer cells for 48 h. MDA-MB-453 (breast cancer cells), SNU-423 (liver cancer cells) and RT-112 (bladder cancer cells) were selected to explore the antiproliferative activity. In this work, 5-fluorouracil (5-Fu) was used as the control drug.

RT-112 = assay: CCK8 antiproliferative assay, bladder cancer cells RT-112; assay type: cell-based; conditions: Homo sapiens, treatment for 48 h
Description: as §1, §2
(§3) In order to explore the antiproliferation ability, four bladder cancer cell lines (UM-UC-3, RT-112, RT4 and T24) were selected and treated with the hybrid 13d in the 24-well plate for 48 h and 72 h. […] Compared with the cell proliferation of 48 h, the cell proliferation of 72 h was decreased.

[1] = tested on: MDA-MB-453, SNU-423 and RT-112; assay: CCK8 antiproliferative assay, all three cancer cells; assay type: cell-based; conditions: CCK8, 48 h; read-out: IC50 against all three cancer cells
Description: as §1, §2

tubulin = assay: Tubulin polymerisation assay in vitro; assay type: biochemical; conditions: for IC50: 6 mg/ml tubulin, PEM buffer, 37 °C, read-out: IC50 tubulin polymerisation inhibitory activity in vitro
Description: (§4) An amount of 6 mg/ml tubulin was resuspended in the PEM buffer (80 mM PIPES (pH 6.9), 1 mM EGTA, 0.5 mM MgCl2, […], 10.2% (v/v) glycerol) and then was preincubated with a sulfonamide-dithiocarbamate hybrid 13d on the ice. The reaction was monitored by a spectrophotometer (Beijng Tianhe Company) at 37 °C to obtain the results of tubulin polymerisation in vitro. RT-112 cells were treated with sulfonamide-dithiocarbamate hybrid 13d for 48 h. Then, slices were fixed by 4% paraformaldehyde for 20 min and washed by PBS for five times. 0.6% Triton-X-100 was added and 0.1% BSA was used to block. β-tubulin antibody was added to incubate overnight at 4 °C. DAPI was used to stain and then images were captured.
Tubulin polymerisation assay investigated that compound 13d inhibited tubulin polymerisation in a concentration dependent manner.

UM-UC-3 = assay: Cell proliferation of bladder cancer cells UM-UC-3; assay type: cell-based; conditions: Homo sapiens, UMUC3; treatment for 48 h
Description: as §1, §3

RT4 = assay: Cell proliferation of bladder cancer cells RT4; assay type: cell-based; conditions: Homo sapiens, RT-4; treatment for 48 h
Description: as §1, §3

T24 = assay: Cell proliferation of bladder cancer cells T24; assay type: cell-based; conditions: Homo sapiens, T-24; treatment for 48 h
Description: as §1, §3

RT-112 cells [2] = assay: Transwell migration assay; assay type: cell-based; conditions: 48 h
Description: Transwell chamber was used to do migration assay according to the reported references[17]^,[18]. Ten thousand RT-112 cells containing compound 13d were seeded in the top chambers for 24 h incubation. The bottom chambers were fixed and stained with crystal violet for 2 h. Finally, the chambers were washed with water, and the top membrane was left to dry.
Based on the antiproliferative activity results, compound 13d was selected to investigate the anticancer mechanisms against the RT-112 cell line. Corning transwell plate was used to do migration assay against RT-112 cells for 48 h. With the treatment of sulfonamide-dithiocarbamate hybrid 13d at 0.5, 1 and 2 µM, the migration rate of RT-112 cells was 76%, 40% and 29%, respectively.

[3] = tested on: E-cadherin, N-cadherin, Vimentin, Snail and Slung in RT-112 cells; assay: Western blot of migration-related proteins; assay type: cell-based; conditions: 48 h, 0.5, 1 and 2 µM
Description: RT-112 cells were treated with compound 13d and then lysed in a RIPA lysis buffer. The protein samples of RT-112 cells were electrophoresed on SDS-PAGE. Nextly, targeted proteins were transferred to PVDF membrane and incubated with antibodies (E-cadherin, N-cadherin, Vimentin, Snail and Slung). The markers were visualised by chemiluminescence detection reagents.
To further characterise the migration effect of sulfonamide-dithiocarbamate hybrid 13d, the expression levels of migration-related proteins (E-cadherin, N-cadherin, Vimentin, Snail and Slung) were investigated against RT-112 cells. Compound 13d was treated for 48 h at concentrations of 0.5, 1 and 2 µM, respectively. […] In addition, hybrid 13d increased the expression of E-cadherin in a concentration manner.

RT-112 cells [4] = assay: Immunostaining of microtubules (β-tubulin antibody); assay type: cell-based
Description: as §4
Tubulin polymerisation inhibitory effects of the sulfonamide-dithiocarbamate hybrid 13d were further explored by the immunofluorescent staining in RT-112 cells. […] However, after the exposure to 0.25 µM of compound 13d, the microtubule organisation in the cytosol were disrupted.

RT-112 cells [5] = assay: RT-112 xenograft nude mouse model; assay type: in vivo, nude mice; conditions: 80 mg/kg intragastric, every day for 21 days
Description: In vivo experiments were processed according to guidelines established by the ethics committee of the 4th affiliated hospital of CMU. Mice were implanted with RT-112 cells (1.5 × 10^7 cells per mouse) on the right flank of nude mice. The mice were divided into the saline group and sulfonamide-dithiocarbamate hybrid 13d (80 mg/kg) group (n = 5 mice for each group). Intragastric administration of hybrid 13d was performed every day for a period of 21 days.
In order to investigate the tumor growth effects of compound 13d, the xenograft nude mouse of RT-112 cells were established.

Compound: NS(=O)(=O)c1ccc(Nc2nc(-c3ccc(Cl)cc3)nc3ccccc23)cc1 [Compound 2]
IC50 (HT-29 cell line): 5.45 µM

Compound: NS(=O)(=O)c1ccc(/N=C2\NC(=O)/C(=C3/C(=O)Nc4ccc(Cl)cc43)S2)cc1 [Compound 3]
IC50 (MCF-7 cells): 3.96 µM

Compound: C#CCSc1ccnc2c(S(=O)(=O)N(C)CC#C)cccc12 [Compound 4]
IC50 (T47D cells): 0.27 µM

Compound: O=c1[nH]cc(F)c(=O)[nH]1 [Compound 5-Fu, 5-fluorouracil, reference compound]
IC50 (MCF-7): 7.4 ± 0.5 µM
IC50 (SNU-423): 10.8 ± 0.7 µM
IC50 (RT-112): 13.6 ± 0.2 µM

Compound: COc1cc(NS(=O)(=O)c2cccc3cccnc23)cc(OC)c1OC [Compound 11, N-(3,4,5-trimethoxyphenyl)quinoline-8-sulfonamide]
IC50 (MCF-7): > 40 µM
IC50 (SNU-423): > 40 µM
IC50 (RT-112): > 40 µM
IC50 [1]: > 40 µM
melting point: 181 to 183 °C

Further lines, with some results ahead:

IC50 (MCF-7): > 40 µM
IC50 (SNU-423): > 40 µM
IC50 (RT-112): > 40 µM
IC50 [1]: > 40 µM
melting point: 129 to 131 °C
Compound: COc1cc(N(CCCBr)S(=O)(=O)c2cccc3cccnc23)cc(OC)c1OC [Compound 12, N-(3-bromopropyl)-N-(3,4,5-trimethoxyphenyl)quinoline-8-sulfonamide]

IC50 (MCF-7): 6.4 ± 1.2 µM
IC50 (SNU-423): 8.7 ± 0.9 µM
IC50 (RT-112): 7.8 ± 0.4 µM
melting point: 96 to 98 °C
Compound: COc1cc(N(CCCSC(=S)N2CCN(C)CC2)S(=O)(=O)c2cccc3cccnc23)cc(OC)c1OC [Compound 13a, 3-(N-(3,4,5-trimethoxyphenyl)quinoline-8-sulfonamido)propyl-4-methylpiperazine-1-carbodithioate]

IC50 (MCF-7): 8.5 ± 0.7 µM
IC50 (SNU-423): 5.4 ± 0.3 µM
IC50 (RT-112): 6.8 ± 0.7 µM
melting point: 131 to 133 °C
Compound: CCN1CCN(C(=S)SCCCN(c2cc(OC)c(OC)c(OC)c2)S(=O)(=O)c2cccc3cccnc23)CC1 [Compound 13b, 3-(N-(3,4,5-trimethoxyphenyl)quinoline-8-sulfonamido)propyl-4-ethylpiperazine-1-carbodithioate]

IC50 (MCF-7): 4.2 ± 0.1 µM
IC50 (SNU-423): 3.6 ± 0.7 µM
IC50 (RT-112): 4.1 ± 0.6 µM
IC50 (tubulin): 3.4 µM
melting point: 106 to 108 °C
Compound: COc1cc(N(CCCSC(=S)N2CCN(CCO)CC2)S(=O)(=O)c2cccc3cccnc23)cc(OC)c1OC [Compound 13c, 3-(N-(3,4,5-trimethoxyphenyl)quinoline-8-sulfonamido)propyl-4–(2-hydroxyethyl)piperazine-1-carbodithioate]
tubulin polymerisation inhibition (tubulin; at 2 µM): weak inhibition
tubulin polymerisation inhibition (tubulin; at 6 µM): significantly inhibited

IC50 (MCF-7): 2.8 ± 0.2 µM
IC50 (SNU-423): 3 ± 0.1 µM
IC50 (RT-112): 0.7 ± 0.1 µM
IC50 (UM-UC-3): 0.9 µM
IC50 (RT4): 1.9 µM
IC50 (T24): 2.6 µM
IC50 (tubulin): 2.9 µM
melting point: 128 to 129 °C
Compound: COc1cc(N(CCCSC(=S)N2CCN(C(C)=O)CC2)S(=O)(=O)c2cccc3cccnc23)cc(OC)c1OC [Compound 13d, 3-(N-(3,4,5-trimethoxyphenyl)quinoline-8-sulfonamido)propyl-4-acetylpiperazine-1-carbodithioate]
migration rate of RT-112 cells (RT-112 cells [2]; 13d at 0.5 µM): 76%
migration rate of RT-112 cells (RT-112 cells [2]; 13d at 1 µM): 40%
migration rate of RT-112 cells (RT-112 cells [2]; 13d at 2 µM): 29%
expression of E-cadherin [3]: increased
expression of N-cadherin [3]: decreased
expression of Slung [3]: decreased
expression of Snail [3]: decreased
expression of Vimentin [3]: decreased
tubulin polymerisation inhibition (tubulin; at 2 µM): weak inhibition
tubulin polymerisation inhibition (tubulin; at 6 µM): significantly inhibited
microtubule organisation in the cytosol (RT-112 cells [4]; 0.25 µM): disrupted
changes of the mitotic spindles (RT-112 cells [4]; 0.5 µM): more clearly observed
average tumor weight (RT-112 cells [5]): 0.51 ± 0.21 g
body weights versus control group (RT-112 cells [5]): no significant difference
inhibitory rate (tumor weight) (RT-112 cells [5]): 66.67%
tumor volume versus control group (RT-112 cells [5]): obviously less than that of the control group
